pIC50: −log10 of the molar value.
Molecular target: T1, GR (Homo sapiens, UniProt P04150)
T1 construct: expressed in transfected cells; host or cells: CHO-K1
T1 sequence (P04150 1-777): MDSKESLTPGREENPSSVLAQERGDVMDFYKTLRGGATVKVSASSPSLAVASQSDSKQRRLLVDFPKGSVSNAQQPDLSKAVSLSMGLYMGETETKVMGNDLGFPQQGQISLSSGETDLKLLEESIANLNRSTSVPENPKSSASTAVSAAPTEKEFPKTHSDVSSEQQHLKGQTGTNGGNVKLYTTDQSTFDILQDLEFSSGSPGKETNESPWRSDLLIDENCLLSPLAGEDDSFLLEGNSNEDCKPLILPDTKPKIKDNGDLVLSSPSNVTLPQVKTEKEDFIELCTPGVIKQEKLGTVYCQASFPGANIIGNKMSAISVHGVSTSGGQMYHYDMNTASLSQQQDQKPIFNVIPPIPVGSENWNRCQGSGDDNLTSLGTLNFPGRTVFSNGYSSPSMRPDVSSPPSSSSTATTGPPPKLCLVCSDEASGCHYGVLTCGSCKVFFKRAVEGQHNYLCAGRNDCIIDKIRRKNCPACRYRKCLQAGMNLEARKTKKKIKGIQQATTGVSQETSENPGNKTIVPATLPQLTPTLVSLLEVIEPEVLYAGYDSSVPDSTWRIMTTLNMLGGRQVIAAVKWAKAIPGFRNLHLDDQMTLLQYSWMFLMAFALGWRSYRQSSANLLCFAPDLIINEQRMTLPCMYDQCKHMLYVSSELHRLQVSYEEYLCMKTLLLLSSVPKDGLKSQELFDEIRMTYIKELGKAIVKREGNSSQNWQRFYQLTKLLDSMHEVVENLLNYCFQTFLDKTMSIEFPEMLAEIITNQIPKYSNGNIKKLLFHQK
Test: In Vitro GR Luciferase Reporter Assay (antagonist mode, CHO-K1-GR-MMTV-Luc reporter cells)
Assay type: cell-based
Excerpt: Example A: In Vitro GR Luciferase Reporter Assay
Cell Line: CHO-K1-GR-MMTV-Luc reporter cells
Culture Media: DMEM (with phenol red)+10% FBS
Assay Media: DMEM (without phenol red)+10% CSS
Culture CHO-K1I-GR-MMTV-Luc reporter cells in 15 cm plates in Culture Media at conditions less than 90% confluence.
Prepare 200×DMSO 1:5 serial dilutions of control and test compounds in 96-well non-sterile V bottom plate in DMSO, 8serial dilutions for each compound.
Prepare 5× Assay Media diluted compound serial dilutions in 96-well non-sterile V bottom plate: Add 97.5 uL/well of Assay Media into 96-well then add 2.5 ul of 200× concentration of compounds and mix well.
Seed cells for Antagonist Assay: […] CHO-K1-GR-MMTV-Luc reporter cells were seeded in a Corning 3707 flat clear bottom 384-well white TC plate in 20 ul of Assay Media containing 12.5 nM Dexamethasone (final concentration=10 nM).
Add compounds: 5 ul of assay media diluted compounds were added to appropriate wells and followed a quick spin (1000 rpm, 10 sec) to bring media and cells to the bottom of plate. The plates were covered with SealMate film to avoid evaporation and placed in 37° C. incubator for approximately 18-24 hours.
Read plates: Equilibrate appropriate amount of Promega OneGlo luciferase reagent to room temperature. Remove the plates from incubator and add 25 uL of OneGlo reagent/well by multiple channel pipette and read the plates with Tecan F500 luminometer within 3 minutes.
The ability of the compounds disclosed herein to inhibit GR activity was quantified and the respective IC50 value was determined. Table 1and Table 2provide the cellular IC50 values of compounds disclosed herein.

[1] = antagonist mode, 10 nM Dexamethasone
[2] = antagonist assay with 10 nM Dexamethasone, 18-24 hours

SMILES	pIC50 [1]	pIC50 [2]
C[C@@]1(S(=O)(=O)c2ccccc2)CCC2=Cc3c(cnn3-c3ccc(F)cc3)C[C@]2(C(=O)c2ccccn2)C1 (single isomer, unassigned) [Example 116, ((4aS,6R)-1-(4-Fluorophenyl)-6-methyl-6-(phenylsulfonyl)-1,4,5,6,7,8-hexahydro-4aH-benzo[f]indazol-4a-yl)(pyridin-2-yl)methanone or ((4aS,6S)-1-(4-fluorophenyl)-6-methyl-6-(phenylsulfonyl)-1,4,5,6,7,8-hexahydro-4aH-benzo[f]indazol-4a-yl)(pyridin-2-yl)methanone]	≥ 7.00	–
C[C@@]1(S(=O)(=O)c2ccccc2)CCC2=Cc3c(cnn3-c3ccc(F)cc3)C[C@]2(C(=O)c2ccccn2)C1 (single isomer, unassigned) [Example 117, ((4aS,6R)-1-(4-Fluorophenyl)-6-methyl-6-(phenylsulfonyl)-1,4,5,6,7,8-hexahydro-4aH-benzo[f]indazol-4a-yl)(pyridin-2-yl)methanone or ((4aS,6S)-1-(4-fluorophenyl)-6-methyl-6-(phenylsulfonyl)-1,4,5,6,7,8-hexahydro-4aH-benzo[f]indazol-4a-yl)(pyridin-2-yl)methanone]	6.00 to 7.00	–
Cn1cc(S(=O)(=O)C[C@@H]2CCC3=Cc4c(cnn4-c4ccc(F)cc4)C[C@]3(C(=O)c3cc(C(F)(F)F)ccn3)C2)cn1 (single isomer, unassigned) [Example 119]	≥ 7.00	–
C[C@H]([C@H]1CCC2=Cc3c(cnn3-c3ccc(F)cc3)C[C@]2(C(=O)c2cc(C(F)(F)F)ccn2)C1)S(=O)(=O)c1cnn(C)c1 (single isomer, unassigned) [Example 120, ((4aR,6S)-1-(4-Fluorophenyl)-6-((R)-1-((1-methyl-1H-pyrazol-4-yl)sulfonyl)ethyl)-1,4,5,6,7,8-hexahydro-4aH-benzo[f]indazol-4a-yl)(4-(trifluoromethyl)pyridin-2-yl)methanone or ((4aR,6S)-1-(4-fluorophenyl)-6-((S)-1-((1-methyl-1H-pyrazol-4-yl)sulfonyl)ethyl)-1,4,5,6,7,8-hexahydro-4aH-benzo[f]indazol-4a-yl)(4-(trifluoromethyl)pyridin-2-yl)methanone]	≥ 7.00	–
C[C@H]([C@H]1CCC2=Cc3c(cnn3-c3ccc(F)cc3)C[C@]2(C(=O)c2cc(C(F)(F)F)ccn2)C1)S(=O)(=O)c1cnn(C)c1 (single isomer, unassigned) [Example 121, ((4aR,6S)-1-(4-Fluorophenyl)-6-((R)-1-((1-methyl-1H-pyrazol-4-yl)sulfonyl)ethyl)-1,4,5,6,7,8-hexahydro-4aH-benzo[f]indazol-4a-yl)(4-(trifluoromethyl)pyridin-2-yl)methanone or ((4aR,6S)-1-(4-fluorophenyl)-6-((S)-1-((1-methyl-1H-pyrazol-4-yl)sulfonyl)ethyl)-1,4,5,6,7,8-hexahydro-4aH-benzo[f]indazol-4a-yl)(4-(trifluoromethyl)pyridin-2-yl)methanone]	≥ 7.00	–
Cc1ccc(S(=O)(=O)[C@H]2CCC3=Cc4c(cnn4-c4ccc(F)cc4)C[C@]3(C(=O)c3ccccn3)C2)cc1 [Example 1, ((4aS,6S)-1-(4-Fluorophenyl)-6-tosyl-1,4,5,6,7,8-hexahydro-4aH-benzo[f]indazol-4a-yl)(pyridin-2-yl)methanone]	–	≥ 7.00
Cc1ccc(S(=O)(=O)[C@@H]2CCC3=Cc4c(cnn4-c4ccc(F)cc4)C[C@]3(C(=O)c3ccccn3)C2)cc1 [Example 2, ((4aS,6R)-1-(4-Fluorophenyl)-6-tosyl-1,4,5,6,7,8-hexahydro-4aH-benzo[f]indazol-4a-yl)(pyridin-2-yl)methanone]	–	≥ 7.00
Cn1cc(S(=O)(=O)[C@H]2CCC3=Cc4c(cnn4-c4ccc(F)cc4)C[C@]3(C(=O)c3cc(C(F)(F)F)ccn3)C2)cn1 [Example 3, ((4aS,6S)-1-(4-Fluorophenyl)-6-((1-methyl-1H-pyrazol-4-yl)sulfonyl)-1,4,5,6,7,8-hexahydro-4aH-benzo[f]indazol-4a-yl)(4-(trifluoromethyl)pyridin-2-yl)methanone]	–	≥ 7.00
O=C(c1ccccc1)N(C1CC1)[C@H]1CCC2=Cc3c(cnn3-c3ccc(F)cc3)C[C@]2(C(=O)c2ccccn2)C1 [Example 6, N-Cyclopropyl-N-((4aS,6S)-1-(4-fluorophenyl)-4a-picolinoyl-4,4a,5,6,7,8-hexahydro-1H-benzo[f]indazol-6-yl)benzamide]	–	≥ 7.00
O=C(c1ccccn1)[C@]12Cc3cnn(-c4ccc(F)cc4)c3C=C1CC[C@H](S(=O)(=O)N1CCCCC1)C2 [Example 7, [(4aS,6S)-1-(4-Fluorophenyl)-6-(1-piperidylsulfonyl)-5,6,7,8-tetrahydro-4H-benzo[f]indazol-4a-yl]-(2-pyridyl)methanone]	–	≥ 7.00
Cc1ccc(S(=O)(=O)[C@H]2CCC3=Cc4c(cnn4-c4ccc(F)cc4)C[C@]3(C(=O)c3nccs3)C2)cc1 [Example 8, ((4aS,6S)-1-(4-fluorophenyl)-6-tosyl-1,4,5,6,7,8-hexahydro-4aH-benzo[f]indazol-4a-yl)(thiazol-2-yl)methanone]	–	≥ 7.00
Cc1ccc(S(=O)(=O)[C@@H]2CCC3=Cc4c(cnn4-c4ccc(F)cc4)C[C@]3(C(=O)c3nccs3)C2)cc1 [Example 9, ((4aS,6R)-1-(4-fluorophenyl)-6-tosyl-1,4,5,6,7,8-hexahydro-4aH-benzo[f]indazol-4a-yl)(thiazol-2-yl)methanone]	–	≥ 7.00
O=C(c1ccccn1)[C@]12Cc3cnn(-c4ccc(F)cc4)c3C=C1CC[C@H](S(=O)(=O)c1ccc(C(F)(F)F)cc1)C2 [Example 10, ((4aS,6S)-1-(4-fluorophenyl)-6-((4-(trifluoromethyl)phenyl)sulfonyl)-1,4,5,6,7,8-hexahydro-4aH-benzo[f]indazol-4a-yl)(pyridin-2-yl)methanone]	–	≥ 7.00
O=C(c1ccccn1)[C@]12Cc3cnn(-c4ccc(F)cc4)c3C=C1CC[C@@H](S(=O)(=O)c1ccc(C(F)(F)F)cc1)C2 [Example 11, ((4aS,6R)-1-(4-fluorophenyl)-6-((4-(trifluoromethyl)phenyl)sulfonyl)-1,4,5,6,7,8-hexahydro-4aH-benzo[f]indazol-4a-yl)(pyridin-2-yl)methanone]	–	≥ 7.00
O=C(c1nccs1)[C@]12Cc3cnn(-c4ccc(F)cc4)c3C=C1CC[C@H](S(=O)(=O)c1ccc(C(F)(F)F)cc1)C2 [Example 12, ((4aS,6S)-1-(4-fluorophenyl)-6-((4-(trifluoromethyl)phenyl)sulfonyl)-1,4,5,6,7,8-hexahydro-4aH-benzo[f]indazol-4a-yl)(thiazol-2-yl)methanone]	–	6.00 to 7.00
O=C(c1nccs1)[C@]12Cc3cnn(-c4ccc(F)cc4)c3C=C1CC[C@@H](S(=O)(=O)c1ccc(C(F)(F)F)cc1)C2 [Example 13, ((4aS,6R)-1-(4-fluorophenyl)-6-((4-(trifluoromethyl)phenyl)sulfonyl)-1,4,5,6,7,8-hexahydro-4aH-benzo[f]indazol-4a-yl)(thiazol-2-yl)methanone]	–	6.00 to 7.00
O=C(c1cc(C(F)(F)F)ccn1)[C@]12Cc3cnn(-c4ccc(F)cc4)c3C=C1CC[C@H](S(=O)(=O)c1ccc(F)c(F)c1)C2 [Example 14, ((4aS,6S)-6-((3,4-difluorophenyl)sulfonyl)-1-(4-fluorophenyl)-1,4,5,6,7,8-hexahydro-4aH-benzo[f]indazol-4a-yl)(4-(trifluoromethyl)pyridin-2-yl)methanone]	–	≥ 7.00
Cc1ccc(S(=O)(=O)[C@H]2CCC3=Cc4c(cnn4-c4ccc(F)cc4)C[C@]3(C(=O)c3cc(C(F)(F)F)ccn3)C2)cc1 [Example 15, ((4aS,6S)-1-(4-fluorophenyl)-6-tosyl-1,4,5,6,7,8-hexahydro-4aH-benzo[f]indazol-4a-yl)(4-(trifluoromethyl)pyridin-2-yl)methanone]	–	≥ 7.00

— patent publication US20210122730A1, “GLUCOCORTICOID RECEPTOR MODULATORS” (ORIC Pharmaceuticals, Inc., priority 2017, published 2021)
